From ChEMBL document CHEMBL1212727, “Design, synthesis and selection of DNA-encoded small-molecule libraries” (Nat Chem Biol, 2009)

These compounds were tested against T1, Mitogen-activated protein kinase 14 (Homo sapiens, UniProt Q16539) (assay: Inhibition of p38alpha assessed as inhibition of [gamma-33P]ATP incorporation into substrate after 4 hrs by radiometric assay).
T1 sequence (Q16539 whole entry): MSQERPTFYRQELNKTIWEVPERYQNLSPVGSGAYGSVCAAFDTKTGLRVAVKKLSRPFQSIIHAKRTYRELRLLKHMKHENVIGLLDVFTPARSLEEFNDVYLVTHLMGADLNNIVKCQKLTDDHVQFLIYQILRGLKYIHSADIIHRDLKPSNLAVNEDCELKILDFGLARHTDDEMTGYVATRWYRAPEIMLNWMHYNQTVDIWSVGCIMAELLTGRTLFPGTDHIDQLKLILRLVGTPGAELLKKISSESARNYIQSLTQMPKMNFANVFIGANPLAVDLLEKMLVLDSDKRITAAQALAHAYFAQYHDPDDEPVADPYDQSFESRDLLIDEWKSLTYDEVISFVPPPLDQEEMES
Work on `CONC(=O)c1ccc(C)c(Nc2nc(NCC3CCCC(CN)C3)nc(NC(C)C(C)(C)C)n2)c1` (stereo not drawn) yielded an IC50 of at most 2 nM. `CONC(=O)c1ccc(C)c(Nc2nc(NCC3CCCC(CN)C3)nc(NC3CCCCC3)n2)c1` (stereo not drawn) showed an IC50 of at most 2 nM. In the case of `CONC(=O)c1ccc(C)c(Nc2nc(NCc3cccc(C)c3)nc(NC(C)C(C)(C)C)n2)c1` (stereo not drawn), the IC50 is reported as 15 nM.

These compounds were tested against T2, Aurora kinase A (Homo sapiens, UniProt O14965) (assay: Inhibition of Aurora A ATP-binding site).
T2 sequence (O14965 whole entry): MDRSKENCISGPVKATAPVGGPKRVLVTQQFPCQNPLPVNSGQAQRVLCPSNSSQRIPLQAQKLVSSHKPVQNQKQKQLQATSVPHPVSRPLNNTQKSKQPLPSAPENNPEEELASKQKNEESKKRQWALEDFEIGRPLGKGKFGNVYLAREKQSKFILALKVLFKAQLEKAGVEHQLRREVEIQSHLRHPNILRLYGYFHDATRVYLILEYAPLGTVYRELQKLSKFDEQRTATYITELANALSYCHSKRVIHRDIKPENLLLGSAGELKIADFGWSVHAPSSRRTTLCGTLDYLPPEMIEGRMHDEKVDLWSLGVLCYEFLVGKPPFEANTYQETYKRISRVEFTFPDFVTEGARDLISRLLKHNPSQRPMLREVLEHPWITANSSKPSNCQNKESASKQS
`Cc1cc(Nc2cc(N3CCN(CC(=O)O)CC3)nc(Sc3ccc(NC(=O)C4CC4)cc3)n2)n[nH]1` gave a Ki of 20 nM.

Each compound was assayed against T1, Mitogen-activated protein kinase 14 (assay: Displacement of […] form p38alpha after 30 mins by luminescence assay).
`CCOc1nc(N[C@@H](Cc2ccc3c(c2)COC(C)(C)O3)C(=O)NC)nc(-n2cnc3cc(C(=O)N4CCCc5ccccc54)ccc32)n1` showed an EC50 of 2700 nM. For `CCOc1nc(N[C@@H](Cc2ccc3c(c2)COC(C)(C)O3)C(=O)NC)nc(-n2cnc3ccc(C(=O)N4CCCc5ccccc54)cc32)n1`, the EC50 was at most 8 nM. `CNC(=O)[C@H](Cc1ccc2c(c1)COC(C)(C)O2)Nc1nc(O)nc(-n2cnc3cc(C(=O)N4CCCc5ccccc54)ccc32)n1` gave an EC50 of 5200 nM. Work on `CNC(=O)[C@H](Cc1ccc2c(c1)COC(C)(C)O2)Nc1nc(-n2cnc3ccc(C(=O)N4CCCc5ccccc54)cc32)nc(=O)[nH]1` yielded an EC50 of at most 7 nM.

These compounds were tested against T2, Aurora kinase A (assay: Inhibition of Aurora A ATP-binding site assessed as inhibition of [gamma-33P]ATP incorporation into substrate by scintillation counting).
`CCCCN(C)c1nc(NCCc2ccccc2OC)nc(NC(Cc2c[nH]c3ncccc23)C(N)=O)n1` (stereo not drawn) was tested, and the IC50 was 3.8 nM. `CCCCN(C)c1nc(NCCc2ccccc2OC)nc(NCCc2c[nH]c3ncccc23)n1` gave an IC50 of 1.2 nM. Work on `COc1ccccc1CCNc1nc(NC(Cc2c[nH]c3ncccc23)C(N)=O)nc(N(C)[C@@H](C)c2ccccc2)n1` (stereo partly drawn) yielded an IC50 of 6.3 nM. In the case of `COc1ccccc1CCNc1nc(Nc2ccc3ncccc3c2)nc(NC(Cc2c[nH]c3ncccc23)C(N)=O)n1` (stereo not drawn), the IC50 is reported as 3.7 nM. In the case of `CNc1nc(NCCc2ccccc2OC)nc(Nc2ccc3ncccc3c2)n1`, the IC50 is reported as 5.1 nM.
